Measured values from US10479784B2, “Substituted pyrazin-2-amines as inhibitors of ATR kinase” (Vertex Pharmaceuticals Incorporated, priority 2008, dated 2019).

Target: full-length ATR (Homo sapiens (Human), UniProt Q13535)
Assay: ATR Inhibition Assay (radioactive-phosphate incorporation)
Format: biochemical
Details: read-out: ATR Ki
Summary of the method: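 Ki(app) was derived by non-linear regression of background-corrected initial rates of 33P incorporation into an 800 μM target peptide, read by phosphocellulose filter scintillation counting. Reaction conditions: 5 nM full-length ATR, 10 μM [γ-33P]ATP, pH 7.5 Tris buffer with MgCl2 and DTT, 25 °C, 10-min preincubation, 24 h run.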

Sequence of full-length ATR (Q13535 whole entry): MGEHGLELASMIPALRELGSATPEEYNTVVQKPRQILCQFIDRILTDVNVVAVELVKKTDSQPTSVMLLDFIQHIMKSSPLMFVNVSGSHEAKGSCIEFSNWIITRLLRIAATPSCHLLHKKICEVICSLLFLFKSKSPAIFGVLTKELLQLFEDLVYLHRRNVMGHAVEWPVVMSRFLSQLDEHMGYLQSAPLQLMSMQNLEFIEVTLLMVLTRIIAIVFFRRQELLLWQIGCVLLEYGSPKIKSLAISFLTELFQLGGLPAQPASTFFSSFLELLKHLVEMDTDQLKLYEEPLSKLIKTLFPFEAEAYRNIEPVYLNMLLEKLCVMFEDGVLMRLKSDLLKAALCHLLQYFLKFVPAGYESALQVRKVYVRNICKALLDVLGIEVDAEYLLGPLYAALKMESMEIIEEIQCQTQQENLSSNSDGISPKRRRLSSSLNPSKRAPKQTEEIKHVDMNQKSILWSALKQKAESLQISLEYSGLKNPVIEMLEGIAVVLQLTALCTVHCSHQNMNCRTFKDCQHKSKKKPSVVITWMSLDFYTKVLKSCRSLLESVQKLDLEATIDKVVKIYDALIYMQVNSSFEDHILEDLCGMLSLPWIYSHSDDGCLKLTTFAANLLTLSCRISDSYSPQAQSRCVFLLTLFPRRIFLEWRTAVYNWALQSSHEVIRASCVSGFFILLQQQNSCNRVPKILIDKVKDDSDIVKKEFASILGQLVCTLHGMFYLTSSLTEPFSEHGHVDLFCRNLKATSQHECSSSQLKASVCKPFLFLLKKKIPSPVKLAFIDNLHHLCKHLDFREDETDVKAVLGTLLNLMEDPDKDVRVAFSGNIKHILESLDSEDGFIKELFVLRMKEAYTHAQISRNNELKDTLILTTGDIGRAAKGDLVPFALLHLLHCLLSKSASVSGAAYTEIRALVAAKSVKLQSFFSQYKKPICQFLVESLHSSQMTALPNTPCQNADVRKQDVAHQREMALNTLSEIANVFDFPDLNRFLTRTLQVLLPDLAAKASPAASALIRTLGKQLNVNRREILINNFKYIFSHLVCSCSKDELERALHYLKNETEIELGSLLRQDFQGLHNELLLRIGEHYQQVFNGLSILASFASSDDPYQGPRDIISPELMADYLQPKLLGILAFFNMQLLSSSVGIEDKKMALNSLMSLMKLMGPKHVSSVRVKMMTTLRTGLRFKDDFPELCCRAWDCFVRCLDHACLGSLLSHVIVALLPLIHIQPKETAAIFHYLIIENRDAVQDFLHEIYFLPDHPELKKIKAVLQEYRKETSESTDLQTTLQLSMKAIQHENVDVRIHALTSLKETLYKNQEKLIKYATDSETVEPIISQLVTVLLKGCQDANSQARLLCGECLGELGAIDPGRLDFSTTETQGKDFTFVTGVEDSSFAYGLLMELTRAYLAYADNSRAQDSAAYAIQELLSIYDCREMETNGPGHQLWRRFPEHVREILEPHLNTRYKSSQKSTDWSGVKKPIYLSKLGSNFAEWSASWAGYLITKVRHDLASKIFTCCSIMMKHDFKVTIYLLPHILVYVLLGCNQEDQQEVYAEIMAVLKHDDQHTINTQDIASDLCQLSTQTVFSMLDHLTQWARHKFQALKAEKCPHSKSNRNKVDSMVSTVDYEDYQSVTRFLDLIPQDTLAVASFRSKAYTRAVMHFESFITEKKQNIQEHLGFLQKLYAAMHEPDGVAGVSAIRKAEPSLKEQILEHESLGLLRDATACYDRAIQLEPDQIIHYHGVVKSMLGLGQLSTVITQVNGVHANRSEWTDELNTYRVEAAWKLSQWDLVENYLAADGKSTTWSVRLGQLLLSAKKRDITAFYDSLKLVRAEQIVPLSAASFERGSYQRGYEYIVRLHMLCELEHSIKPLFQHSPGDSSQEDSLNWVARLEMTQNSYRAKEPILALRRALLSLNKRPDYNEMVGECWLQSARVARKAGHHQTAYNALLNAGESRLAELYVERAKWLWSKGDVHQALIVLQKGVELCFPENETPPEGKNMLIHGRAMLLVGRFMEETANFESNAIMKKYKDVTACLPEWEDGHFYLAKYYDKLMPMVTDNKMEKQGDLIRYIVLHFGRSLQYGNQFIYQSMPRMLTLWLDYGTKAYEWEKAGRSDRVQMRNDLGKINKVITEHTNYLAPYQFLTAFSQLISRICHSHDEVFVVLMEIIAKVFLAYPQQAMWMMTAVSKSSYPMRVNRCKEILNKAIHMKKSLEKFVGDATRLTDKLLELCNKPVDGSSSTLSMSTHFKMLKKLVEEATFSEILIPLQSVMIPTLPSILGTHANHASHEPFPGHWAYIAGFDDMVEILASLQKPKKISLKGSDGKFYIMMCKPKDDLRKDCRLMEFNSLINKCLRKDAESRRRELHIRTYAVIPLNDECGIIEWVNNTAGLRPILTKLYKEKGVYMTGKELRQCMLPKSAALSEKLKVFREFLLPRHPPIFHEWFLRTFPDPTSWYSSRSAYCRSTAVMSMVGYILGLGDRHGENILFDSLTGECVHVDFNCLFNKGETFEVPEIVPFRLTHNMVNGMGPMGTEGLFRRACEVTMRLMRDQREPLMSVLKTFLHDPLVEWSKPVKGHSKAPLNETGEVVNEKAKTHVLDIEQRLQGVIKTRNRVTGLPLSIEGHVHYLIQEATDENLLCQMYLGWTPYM

Row | Ki | SMILES
1 | 10 to 100 nM | Nc1ncc(-c2ccc(C(=O)N3CCC3)cc2)nc1C(=O)Nc1ccccc1 [Compound I-72, 3-amino-6-(4-(azetidine-1-carbonyl)phenyl)-N-phenylpyrazine-2-carboxamide]
2 | 100 to 5000 nM | Nc1ncc(-c2cccnc2)nc1C(=O)Nc1ccncn1 [Compound I-89, 3-amino-6-(pyridin-3-yl)-N-(pyrimidin-4-yl)pyrazine-2-carboxamide]
3 | 100 to 5000 nM | Nc1ncc(-c2cccnc2)nc1C(=O)Nc1ccncc1 [Compound I-98, 3-amino-6-(pyridin-3-yl)-N-(pyridin-4-yl)pyrazine-2-carboxamide]
4 | ≤ 10 nM | CC(C)S(=O)(=O)c1ccc(-c2cnc(N)c(-c3nnc(N)o3)n2)cc1 [IA-270, 5-[3-amino-6-(4-isopropylsulfonylphenyl)pyrazin-2-yl]-1,3,4-oxadiazol-2-amine]
5 | 10 to 100 nM | Nc1ncc(-c2ccc(C(=O)N3CCC(N4CCCC4)CC3)cc2)nc1C(=O)Nc1ccccc1 [Compound I-71, 3-amino-N-phenyl-6-(4-(4-(pyrrolidin-1-yl)piperidine-1-carbonyl)phenyl) pyrazine-2-carboxamide]
6 | 100 to 5000 nM | COC(=O)c1ccc2nc(-c3nc(-c4ccc(S(C)(=O)=O)cc4)cnc3N)[nH]c2c1 [Compound I-116, methyl 2-(3-amino-6-(4-(methylsulfonyl)phenyl)pyrazin-2-yl)-1H-benzo[d]imidazole-6-carboxylate]
7 | 10 to 100 nM | Cc1cc(NC(=O)c2nc(-c3ccc(S(C)(=O)=O)cc3)cnc2N)ccn1 [VII-2]
8 | 10 to 100 nM | NCc1cccc(-c2nnc(-c3nc(-c4cccnc4)cnc3N)[nH]2)c1 [Compound I-143, 3-(5-(3-(aminomethyl)phenyl)-4H-1,2,4-triazol-3-yl)-5-(pyridin-3-yl)pyrazin-2-amine]
9 | 10 to 100 nM | CC(C)S(=O)(=O)c1ccc(-c2cnc(N)c(-c3nnc(-c4cccc(CN(C)C)c4)o3)n2)cc1 [IA-204, 3-[5-[3-(dimethylaminomethyl)phenyl]-1,3,4-oxadiazol-2-yl]-5-(4-isopropylsulfonylphenyl)pyrazin-2-amine]
10 | ≤ 10 nM | CC(C)S(=O)(=O)c1ccc(-c2cnc(N)c(-c3nnc(-c4cccc([C@@H](C)N)c4)o3)n2)cc1 [IA-80, 3-[5-[3-[(1R)-1-aminoethyl]phenyl]-1,3,4-oxadiazol-2-yl]-5-(4-isopropylsulfonylphenyl)pyrazin-2-amine]
11 | 10 to 100 nM | Nc1ncc(-c2ccc(C(=O)NCCO)cc2)nc1-c1nc2ccccc2[nH]1 [Compound I-132, 4-(5-amino-6-(1H-benzo[d]imidazol-2-yl)pyrazin-2-yl)-N-(2-hydroxyethyl)benzamide]
12 | ≤ 10 nM | CC(C)S(=O)(=O)c1ccc(-c2cnc(N)c(-c3nnc(-c4ccc(C(C)(C)N)cc4)o3)n2)cc1 [IA-311, 3-[5-[4-(1-amino-1-methyl-ethyl)phenyl]-1,3,4-oxadiazol-2-yl]-5-(4-isopropylsulfonylphenyl)pyrazin-2-amine]
13 | 100 to 5000 nM | CC(C)S(=O)(=O)c1ccc(-c2cnc(N)c(-c3nnc(CN)o3)n2)cc1 [IA-168, 3-[5-(aminomethyl)-1,3,4-oxadiazol-2-yl]-5-(4-isopropylsulfonylphenyl)pyrazin-2-amine]
14 | 100 to 5000 nM | CN(C)C(=O)c1ccc(-c2cnc(N)c(-c3nnc(NC4CCCCC4)o3)n2)cc1 [IA-163, 4-[5-amino-6-[5-(cyclohexylamino)-1,3,4-oxadiazol-2-yl]pyrazin-2-yl]-N,N-dimethyl-benzamide]
15 | 10 to 100 nM | Nc1ncc(-c2cccc3ncccc23)nc1-c1nnc(-c2ccccc2)o1 [IA-260, 3-(5-phenyl-1,3,4-oxadiazol-2-yl)-5-(5-quinolyl)pyrazin-2-amine]
16 | 10 to 100 nM | CN(C)C(=O)c1ccc(-c2cnc(N)c(-c3nnc(-c4cccc(F)c4)o3)n2)cc1 [IA-40, 4-(5-amino-6-(5-(3-fluorophenyl)-1,3,4-oxadiazol-2-yl)pyrazin-2-yl)-N,N-dimethylbenzamide]
17 | 10 to 100 nM | COCCN(C)C(=O)c1ccc(-c2cnc(N)c(C(=O)Nc3ccccc3)n2)cc1 [Compound I-45, 3-amino-6-(4-((2-methoxyethyl)(methyl)carbamoyl)phenyl)-N-phenylpyrazine-2-carboxamide]
18 | 10 to 100 nM | Nc1ncc(-c2ccc(C(=O)O)cc2)nc1C(=O)Nc1ccccc1 [Compound I-7, 4-(5-amino-6-(phenylcarbamoyl)pyrazin-2-yl)benzoic acid]
19 | ≤ 10 nM | CC(C)Oc1ccccc1-c1nnc(-c2nc(-c3ccc(C(=O)N(C)C)cc3)cnc2N)o1 [IA-108, 4-[5-amino-6-[5-(2-isopropoxyphenyl)-1,3,4-oxadiazol-2-yl]pyrazin-2-yl]-N,N-dimethyl-benzamide]
20 | 100 to 5000 nM | Cc1ccccc1NC(=O)c1nc(-c2cccnc2)cnc1N [Compound I-91, 3-amino-6-(pyridin-3-yl)-N-o-tolylpyrazine-2-carboxamide]
21 | 100 to 5000 nM | NC(=O)c1ccc(NC(=O)c2nc(-c3cccnc3)cnc2N)cc1 [Compound I-92, 3-amino-N-(4-carbamoylphenyl)-6-(pyridin-3-yl)pyrazine-2-carboxamide]
22 | ≤ 10 nM | CNCc1csc(-c2nnc(-c3nc(-c4ccc(S(=O)(=O)C(C)C)cc4)cnc3N)o2)c1 [IA-226, 5-(4-isopropylsulfonylphenyl)-3-[5-[4-(methylaminomethyl)-2-thienyl]-1,3,4-oxadiazol-2-yl]pyrazin-2-amine]
23 | 10 to 100 nM | Nc1ncc(-c2ccc(C(=O)CN3CCC(O)CC3)cc2)nc1C(=O)Nc1ccccc1 [Compound I-23, 3-amino-6-(4-(2-(4-hydroxypiperidin-1-yl)acetyl)phenyl)-N-phenylpyrazine-2-carboxamide]
24 | 10 to 100 nM | CN(C)[C@@H]1CCN(S(=O)(=O)c2ccc(-c3cnc(N)c(-c4nnc(-c5ccccc5)o4)n3)cc2)C1 [IA-25]
25 | 100 to 5000 nM | CC(C)S(=O)(=O)c1ccc(-c2cnc(N)c(-c3nnc(NC(=O)[C@@H]4CCCCN4)o3)n2)cc1 [IA-211, (2S)—N-[5-[3-amino-6-(4-isopropylsulfonylphenyl)pyrazin-2-yl]-1,3,4-oxadiazol-2-yl]piperidine-2-carboxamide]
26 | 100 to 5000 nM | CC(C)Sc1ccccc1-c1cnc(N)c(-c2nnc(-c3ccccc3)o2)n1 [IA-229, 5-(2-isopropylsulfanylphenyl)-3-(5-phenyl-1,3,4-oxadiazol-2-yl)pyrazin-2-amine]
27 | 10 to 100 nM | CS(=O)(=O)c1ccc(-c2cnc(N)c(-c3nc4ccncc4[nH]3)n2)cc1 [Compound I-120, 3-(3H-imidazo[4,5-c]pyridin-2-yl)-5-(4-(methylsulfonyl)phenyl) pyrazin-2-amine]
28 | 10 to 100 nM | NCC[S+]([O-])c1ccccc1-c1cnc(N)c(-c2nnc(-c3ccccc3)o2)n1 (centres unmarked) [IA-261, 5-(2-(2-aminoethylsulfinyl)phenyl)-3-(5-phenyl-1,3,4-oxadiazol-2-yl)pyrazin-2-amine]
29 | ≤ 10 nM | CNCc1ccc(-c2nnc(-c3nc(-c4ccc(S(=O)(=O)C(C)C)cc4F)cnc3N)o2)cc1 [IA-292, 5-(2-fluoro-4-isopropylsulfonyl-phenyl)-3-[5-[4-(methylaminomethyl)phenyl]-1,3,4-oxadiazol-2-yl]pyrazin-2-amine]
